For one assay, the system named is NK cells. Format: in vivo, BALB/c mice. Particulars: 200 μg/kg for a week. As to the method:
Phenotypic analysis of total (FIG. 2a, FIG. 2b) or NK (FIG. 2c) cells from spleen of MCMV-infected BALB/c mice untreated (−) or treated (+) with 200 μg/kg Thymosin alpha 1 for a week; None represents uninfected mice. Numbers refer to the percentage of positive cells on FACS analysis, a week after the infection. Histograms are representative of 1 out of 4 independent experiments. (FIG. 2d) Cytotoxic activity (by standard 51Cr-release assay against YAC-1 targets) and frequency of IFN-.-producing NK cells by ELISPOT assay from mice treated as above. Bars indicate the standard errors. *P<0.05, infected vs uninfected mice. **P<0.05, Thymosin alpha 1-treated vs untreated infected mice. The results shown are from 5 independent experiments. Flow cytometry analyses. After blocking of FcRs with the anti-CD16/32 (2.4G2) antibody, cells were analyzed for antigen expression with a FACScan flow cytofluorometer (Becton Dickinson, Mountain View, Calif.) equipped with CELLQuest™ software. Control staining of cells with irrelevant Ab was used to obtain background fluorescence values. Abs were from PharMingen. NK cell cytotoxic activity. NK cells, purified from spleens by DX5 microbeads (Miltenyi Biotec), were defined as NK1.1+CD3-cells. NK cytolytic activity was assessed against 51 Cr-labeled YAC-1 lymphoma cells (Blood 2005; 106:4397-4406). Quantification of cytokines by ELISA and ELISPOT assays. The levels of cytokines in the culture supernatants of mitogen-stimulated spleen cells (48 h stimulation with 10 μg/ml ConA) or MCMV-pulsed DC (24 h) were determined by ELISA (R&D Systems and PBL, Biomedical Lab, Milan, Italy). The detection limits (pg/ml) of the assays were <16 for IL-12 p70, <10 for IFN-., <3 for IL-10 and <10 for IFN-a. IFN-.-producing NK cells were enumerated by ELISPOT assay on purified NK (Virus Res. 2003; 98:17-467 25). Results are expressed as the mean number of cytokine-producing cells (±SE) per 10^5 cells, calculated using replicates of serial 2-fold dilutions of cells.

The subject of a further assay is MCMV. Nature of the assay: Viral replication in DC subsets (real-time PCR of MCMV gB transcripts). Format: cell-based, BALB/c mice. Particulars: 50 μg/ml for 2 h before infection, 48 h. As to the method:
(§1) (FIG. 3a) CD11b+DC or pDC were generated from bone marrow of BALB/c mice, infected with MCMV and assessed for morphology by light microscopy and viral replication by real-time PCR of MCMV gB transcripts expression (both at 48 h) or for IRF7 nuclear expression by immunobloting with anti-IRF7 (2 h later). Cells were exposed (+) or not (−) to 50 μg/ml Thymosin alpha 1 for 2 h at 37° C. before infection. − represents uninfected cells. The results shown represent one representative experiment out of 3.
DC subset generation. DC were obtained by culturing 10^6/ml BALB/c bone marrow cells in Iscove's modified medium, containing 10% filtered bovine serum, 50 μM 2-mercaptoethanol, sodium pyruvate (1 mM), 2 mM L-glutamine, HEPES (10 mM), and 50 μg/ml gentamycin in the presence of 150 U/ml mouse rGM-CSF (Sigma) and 75 U/ml rIL-4 (R&D Systems) for 7 days to obtain CD11b+DC or 200 ng/ml FLT3-L (Immunex Corporation, Seattle, Wash.) for 9 days to obtain pDC. […]
Inhibition of viral replication. […] Infectivity was measured 48 h later.
Real time RT-PCR for quantification of MCMV mRNA. […]
For orientation: In qPCR the cycle at which signal appears reflects the starting amount.

The next assay relates to IRF7. Nature of the assay: Immunoblot analysis of nuclear IRF7 in DC subsets. As to conditions: pDC, 50 μg/ml, alone or in combination with virus. The assay is classed as cell-based, BALB/c mice. As to the method: as §1
Immunoblot analysis of IRF7. DC were exposed for […] 50 μg/ml Thymosin alpha 1 or 10^5 PFU MCMV, either alone or in combination. Nuclear extracts were prepared with NE-PER nuclear and cytoplasmic extraction reagents (Pierce, Celbio S.r.l., Milan, Italy) and the protein concentration of the nuclear extracts was determined with a BCA-200 protein assay kit (Pierce) following the manufacture's instructions. Nuclear content of IRF7 was determined by Western blot using rabbit anti-IRF7 (H246) antibody and bovine anti-rabbit-horseradish peroxidase (Santa Cruz Biotechnology). Visualization was performed with the ECL Western blotting analysis system from Amersham and Kodak Biomax films.

Another assay relates to lymphosarcoma cells. As to conditions: mouse, in vivo; cited from earlier work.
[1] abbreviates: spleen, MCMV-infected BALB/c mice.

Ends that are not written are not given here.

For “Ac-Ser-Asp-Ala-Ala-Val-Asp-Thr-Ser-Ser-Glu -Ile-Thr-Thr-Lys-Asp-Leu-Lys-Glu-Lys-Lys-Glu-Val-Glu-Glu-Ala-Glu-Asn-O (Ac-SDAAVDTSSEITTKDLKEKKEVEEAEN) [Thymosin alpha 1, acidic peptide present in thymus extract with immunoregulatory properties]”, in the assay on NK cells (ex-vivo purified splenic NK cells), the “frequency of IFN-.-producing cells (ELISPOT)” value is listed as “significantly up-regulated”. For the same substance, in the assay on NK cells (setting [1]), the “expansion of CD4+ or CD8+ T cells” value was “not affecting the expansion”, the “expansion of NK1.1+ NK cells” value is reported as “expanded” and the “expression of the activation marker CD69 on NK cells” value is recorded as “increased expression”. Moreover, the viral replication result in the assay with MCMV (CD11b+DC) was “not affected”. Also, the viral replication entry in the assay on MCMV (pDC) is on record as “actually promoted”. The “nuclear IRF7 expression (translocation)” value with IRF7 is on record as “translocation of IRF7”. The “local sarcoma growth, liver and lung metastases of lymphosarcoma cells” value in the assay on lymphosarcoma cells is recorded as “significantly reduced”.
